{"source": "ChEMBL document CHEMBL1926541", "about": "“Molecular docking of γ-sitosterol with some targets related to diabetes” (2012)", "assay_type_in_all_cases": "functional", "key": {"[1]": {"system": "Rattus norvegicus", "assay": "Antidiabetic activity in STZ-induced diabetic rat model assessed as increase in glucose 6 phosphate dehydrogenase at 20 mg/kg, po qd for 21 days"}, "[2]": {"system": "Rattus norvegicus", "assay": "Antidiabetic activity in STZ-induced diabetic rat model assessed as increase in muscle glycogen at 20 mg/kg, po qd for 21 days"}, "[3]": {"system": "Rattus norvegicus", "assay": "Antidiabetic activity in STZ-induced diabetic rat model assessed as increase in plasma insulin level at 20 mg/kg, po qd for 21 days"}, "[4]": {"system": "Rattus norvegicus", "assay": "Antidiabetic activity in STZ-induced diabetic rat model assessed as increase in liver glycogen at 20 mg/kg, po qd for 21 days"}, "[5]": {"system": "Rattus norvegicus", "assay": "Antidiabetic activity in STZ-induced diabetic rat model assessed as reduction in glycosylated haemoglobin at 20 mg/kg, po qd for 21 days", "parameters": "scale not given: the % may be the effect or the level left"}, "[6]": {"system": "Rattus norvegicus", "assay": "Antidiabetic activity in STZ-induced diabetic rat model assessed as reduction in glucose-6-phosphatase at 20 mg/kg, po qd for 21 days", "parameters": "scale not given: the % may be the effect or the level left"}}}
{"smiles": "CC[C@H](CC[C@@H](C)[C@H]1CC[C@H]2[C@@H]3CC=C4C[C@@H](O)CC[C@]4(C)[C@H]3CC[C@]12C)C(C)C", "note": "[BETA-SITOSTEROL]", "values": [{"measurement": "Activity", "setting": "[1]", "result": 38.52, "unit": "%"}, {"measurement": "Activity", "setting": "[2]", "result": 76.86, "unit": "%"}, {"measurement": "Activity", "setting": "[3]", "result": 69.05, "unit": "%"}, {"measurement": "Activity", "setting": "[4]", "result": 77.15, "unit": "%"}, {"measurement": "Activity", "setting": "[5]", "result": 66.96, "unit": "%"}, {"measurement": "Activity", "setting": "[6]", "result": 40.07, "unit": "%"}]}
